Laboratory results from patent US20150209315A1 (Cumberland Pharmaceuticals, priority 2009, published 2015).

Tests used:
[1] = test system: post-operative adult patients; assay: Example 1: patient self-assessment of pain, VAS with movement; type: in vivo, human; parameters: key to VAS Score measured with Movement (median): VAS 0-10: 0 = no pain, 10 = intense pain
Description: Pain was measured by the patient's self-assessment using a Visual Analog Scale (VAS) from 0-10 with 0 being no pain and 10 being intense pain. This was measured both at rest and with movement. […] […] To account for the missing pain assessments, two missing value approaches as described in the statistical analysis plan were used to impute values. To determine the difference in overall pain at differing time-points, the area under the VAS pain curve during the first 24 hours, between 6 and 24 hours and between 12 and 24 hours were analyzed.

[2] = test system: patients undergoing orthopedic surgical procedures; assay: Example 3: adverse events; type: in vivo, human
Description: Patients were evaluated and compared for morphine requirements between the active doses and placebo using analysis of variance and covariance procedures at an overall alpha level of 0.05. Secondary efficacy parameters were also evaluated and compared among the treatment groups using appropriate statistical methods described in the statistical analysis section of the protocol. For the adverse events, instead of using an unadjusted Chi-square test and a Cochran-Mantel-Haenszel test adjusted for center to compare treatment groups with respect to the numbers of patients reporting AEs, a Fisher's exact test was used to compare treatment groups for any AE that was reported by five or more patients.

CC(C)Cc1ccc(C(C)C(=O)O)cc1 (stereo not shown) [Ibuprofen, 2-(4-isobutylphenyl) propionic acid]
VAS Score measured with Movement (median) ([1]; 400 mg, ITT, 48-Hour): 3.2
VAS Score measured with Movement, % Reduction vs Placebo ([1]; 400 mg, ITT, 48-Hour): −39.1%
VAS Score measured with Movement (median) ([1]; 800 mg, EEP, 1-Hour): 7.8
VAS Score measured with Movement, % Reduction vs Placebo ([1]; 800 mg, EEP, 1-Hour): 2.5%
VAS Score measured with Movement (median) ([1]; 800 mg, EEP, 2-Hour): 7.0
VAS Score measured with Movement, % Reduction vs Placebo ([1]; 800 mg, EEP, 2-Hour): 1.4%
VAS Score measured with Movement (median) ([1]; 800 mg, EEP, 3-Hour): 6.1
VAS Score measured with Movement, % Reduction vs Placebo ([1]; 800 mg, EEP, 3-Hour): −1.7%
VAS Score measured with Movement (median) ([1]; 800 mg, EEP, 6-Hour): 5.6
VAS Score measured with Movement, % Reduction vs Placebo ([1]; 800 mg, EEP, 6-Hour): −12.0%
VAS Score measured with Movement (median) ([1]; 800 mg, EEP, 9-Hour): 4.8
VAS Score measured with Movement, % Reduction vs Placebo ([1]; 800 mg, EEP, 9-Hour): 4.0%
VAS Score measured with Movement (median) ([1]; 800 mg, EEP, 12-Hour): 4.4
VAS Score measured with Movement (median) ([1]; 800 mg, EEP, 15-Hour): 4.2
VAS Score measured with Movement, % Reduction vs Placebo ([1]; 800 mg, EEP, 15-Hour): 16.0%
VAS Score measured with Movement (median) ([1]; 800 mg, EEP, 18-Hour): 4.0
VAS Score measured with Movement, % Reduction vs Placebo ([1]; 800 mg, EEP, 18-Hour): 20.0%
VAS Score measured with Movement (median) ([1]; 800 mg, EEP, 21-Hour): 3.7
VAS Score measured with Movement, % Reduction vs Placebo ([1]; 800 mg, EEP, 21-Hour): 26.0%
VAS Score measured with Movement (median) ([1]; 800 mg, EEP, 24-Hour): 3.6
VAS Score measured with Movement, % Reduction vs Placebo ([1]; 800 mg, EEP, 24-Hour): 18.2%
VAS Score measured with Movement (median) ([1]; 800 mg, EEP, 27-Hour): 3.7
VAS Score measured with Movement, % Reduction vs Placebo ([1]; 800 mg, EEP, 27-Hour): 17.8%
VAS Score measured with Movement (median) ([1]; 800 mg, EEP, 30-Hour): 3.6
VAS Score measured with Movement (median) ([1]; 800 mg, EEP, 33-Hour): 3.6
VAS Score measured with Movement, % Reduction vs Placebo ([1]; 800 mg, EEP, 33-Hour): 5.3%
VAS Score measured with Movement (median) ([1]; 800 mg, EEP, 36-Hour): 3.4
VAS Score measured with Movement (median) ([1]; 800 mg, EEP, 39-Hour): 3.8
VAS Score measured with Movement, % Reduction vs Placebo ([1]; 800 mg, EEP, 39-Hour): −11.8%
VAS Score measured with Movement (median) ([1]; 800 mg, EEP, 42-Hour): 3.2
VAS Score measured with Movement, % Reduction vs Placebo ([1]; 800 mg, EEP, 42-Hour): 8.6%
VAS Score measured with Movement (median) ([1]; 800 mg, EEP, 45 Hour): 2.8
VAS Score measured with Movement, % Reduction vs Placebo ([1]; 800 mg, EEP, 45 Hour): 9.7%
VAS Score measured with Movement (median) ([1]; 800 mg, EEP, 48-Hour): 2.1
VAS Score measured with Movement (median) ([1]; 800 mg, ITT, 1-Hour): 7.3
VAS Score measured with Movement, % Reduction vs Placebo ([1]; 800 mg, ITT, 1-Hour): 8.8%
VAS Score measured with Movement (median) ([1]; 800 mg, ITT, 2-Hour): 6.8
VAS Score measured with Movement, % Reduction vs Placebo ([1]; 800 mg, ITT, 2-Hour): 6.8%
VAS Score measured with Movement (median) ([1]; 800 mg, ITT, 3-Hour): 6.0
VAS Score measured with Movement, % Reduction vs Placebo ([1]; 800 mg, ITT, 3-Hour): 4.8%
VAS Score measured with Movement (median) ([1]; 800 mg, ITT, 6-Hour): 5.3
VAS Score measured with Movement, % Reduction vs Placebo ([1]; 800 mg, ITT, 6-Hour): 7.0%
VAS Score measured with Movement (median) ([1]; 800 mg, ITT, 9-Hour): 4.6
VAS Score measured with Movement (median) ([1]; 800 mg, ITT, 12-Hour): 4.3
VAS Score measured with Movement, % Reduction vs Placebo ([1]; 800 mg, ITT, 12-Hour): 14.0%
VAS Score measured with Movement (median) ([1]; 800 mg, ITT, 15-Hour): 4.2
VAS Score measured with Movement, % Reduction vs Placebo ([1]; 800 mg, ITT, 15-Hour): 16.0%
VAS Score measured with Movement (median) ([1]; 800 mg, ITT, 18-Hour): 4.0
VAS Score measured with Movement, % Reduction vs Placebo ([1]; 800 mg, ITT, 18-Hour): 20.0%
VAS Score measured with Movement (median) ([1]; 800 mg, ITT, 21-Hour): 3.8
VAS Score measured with Movement, % Reduction vs Placebo ([1]; 800 mg, ITT, 21-Hour): 22.4%
VAS Score measured with Movement (median) ([1]; 800 mg, ITT, 24-Hour): 3.7
VAS Score measured with Movement, % Reduction vs Placebo ([1]; 800 mg, ITT, 24-Hour): 17.8%
VAS Score measured with Movement (median) ([1]; 800 mg, ITT, 27 Hour): 3.6
VAS Score measured with Movement, % Reduction vs Placebo ([1]; 800 mg, ITT, 27 Hour): 18.2%
VAS Score measured with Movement (median) ([1]; 800 mg, ITT, 30-Hour): 3.5
VAS Score measured with Movement (median) ([1]; 800 mg, ITT, 33-Hour): 3.5
VAS Score measured with Movement, % Reduction vs Placebo ([1]; 800 mg, ITT, 33-Hour): 7.9%
VAS Score measured with Movement (median) ([1]; 800 mg, ITT, 36-Hour): 3.5
VAS Score measured with Movement (median) ([1]; 800 mg, ITT, 39-Hour): 3.7
VAS Score measured with Movement, % Reduction vs Placebo ([1]; 800 mg, ITT, 39-Hour): -5.7%
VAS Score measured with Movement (median) ([1]; 800 mg, ITT, 42-Hour): 3.3
VAS Score measured with Movement, % Reduction vs Placebo ([1]; 800 mg, ITT, 42-Hour): 2.9%
VAS Score measured with Movement (median) ([1]; 800 mg, ITT, 45-Hour): 2.7
VAS Score measured with Movement (median) ([1]; 800 mg, ITT, 48-Hour): 2.1
VAS Score measured with Movement, % Reduction vs Placebo ([1]; 800 mg, ITT, 48-Hour): 8.7%
deaths ([2]; 800 mg): no deaths reported
incidence of serious adverse events vs placebo ([2]; 800 mg): no statistically significant difference
patients that experienced dyspepsia (treatment-emergent adverse events) ([2]; 800 mg vs placebo): significantly more patients in the placebo group
patients that experienced vomiting (treatment-emergent adverse events) ([2]; 800 mg vs placebo): significantly more patients in the intravenous ibuprofen group
